Data: US6329378A, “Hydrazone, hydrazine and thiosemicarbazone derivatives as antifungal agents” (Anadys Pharmaceuticals, Inc., priority 2000, dated 2001)
≈ marks a conversion by molar mass, not a printed value.

Assays:
C. albicans [1] = assay: MIC, broth microdilution (NCCLS M27-A), C. albicans; assay type: cell-based, Candida albicans; settings: 48 hours, C. albicans ATCC 10231; for MIC: Candida albicans, ATCC10231, 35° C.; for MIC C. albicans: 35° C.
Description: (§1) Compounds of the invention were tested for antifungal susceptibility using broth microdilution assay established by the National Committee for Clinical Laboratory Standards, in NCCLS Document M27-A, which is hereby incorporated by reference. Minimum inhibitory concentrations (MICs) and minimum fungicidal concentrations (MFCs) were measured.
(§2) Yeasts (Saccharomyces cerevisiae and Candida albicans) are cultured on SDA plates in a 35° C. incubator. Strains on SDA plates are stored at 4° C. and used as working stock cultures.
(§3) Inoculum for susceptibility testing is prepared from fresh 24 hour cultures. 5-10 colonies are scraped from the plate and suspended in three milliliters of sterile 0.85% saline (8.5 g/liter NaCl). The cell density of the solution is determined by measuring the absorbance in a spectrophotometer (Shimadzu UV-1201S UV-VIS Spectrophotometer) set at 600 nm. An absorbance value between 0.1 and 0.4 is required for an accurate reading.
(§4) For Candida albicans strains ATCC 10231, 1.0 OD600 unit is approximately 10^7 cells per ml. For Saccharomyces cerevisiae strain CTY552, 1.0 OD600 unit is slightly less than 10^7 cells per ml. Cell suspensions are diluted with the appropriate medium (typically RPMI-1640) to OD600 =0.0003 for Candida and OD600 =0.0004 for Saccharomyces. The diluted suspension contains approximately 3×10^3 cells per ml (this is a 2×concentration inoculum). Two 100 μl aliquots of this dilution are spread on SDA plates and incubated at 35° C. for 1-2 days to determine the precise number of colony forming units. An acceptable range for the inoculum (2×) is 1-5×10^3 cfu/ml (100-500 for 100 μl). Following two-fold dilution of the inoculum with compound, the final concentration of cells will be 0.5-2.5×10^3 per ml. The inoculum is kept at 4° C. and used within a few hours.
(§5) Stock solutions and concentrations tested will vary from compound to compound. In general, though, stock solutions of 12.8 mg/ml in DMSO (Sigma D-8779) are prepared. This will allow for a 128 μg/ml starting test concentration containing 1% DMSO. Stock solutions are stored at -20° C. and dilutions for antifungal testing are freshly prepared before each assay.
(§6) Stock solutions of Amphotericin B and Itraconazole are prepared at 1.6 mg/ml in DMSO. Amphotericin B is sold as a powder that is approximately 80% Amphotericin B. Stock solutions are made accordingly (2.0 mg of powder for a 1 ml solution of 1.6 mg/ml Amphotericin B).
(§7) Both of these (control and test compounds) represent 1:50 dilutions. For an assay with three fungal strains, 40 microliters of a stock solution are diluted to 2.0 ml with room temperature medium.
(§8) Antifungal susceptibility tests are setup in polystyrene, 96-well, flat bottom plates (Costar 9017). To every well in columns 2-12 is added 100 microliters of media. An electronic multichannel (12) pipettor with no tip on channel one is used. To every well in column one is added 200 microliters of diluted compound (32 μg/ml for Amphotericin B and Itraconazole controls, 256 μg/ml for test compounds, 100-fold dilution for natural product extracts). A manual multichannel (8) pipettor is then used to set up a series of 2-fold dilutions. 100 microliters is removed from each well of column one and mixed with 100 microliters in column 2. This is done successively (column two to column three etc.) to produce a set of 11 serial dilutions (column 12 is a drug free control).
(§9) To every well in two rows, 100 μl of inoculum (2×) of a single strain is added. To the final two rows on the plate (G & H), only media is added. Addition of inoculum is best accomplished using an electronic multichannel (12) pipettor. This setup (see below) creates a starting cell density of […] (100-500 per well) and drug concentration ranging from 16 μg/ml to […] for controls (Amphotericin B and Itraconazole), 128 μg/ml to 0.125 μg/ml for pure test compounds, and 200 to 204, 800-fold dilutions for natural product extracts.

S. serevisiae = assay: MIC, broth microdilution (NCCLS M27-A), S. cerevisiae; assay type: cell-based, Saccharomyces cerevisiae; settings: for MIC: Saccharomyces cerevisiae, 48 h, read-out: MIC S. serevisiae; for MIC S. serevisiae: broth microdilution, 35° C., 48 hours, S. cerevisiae CTY552
Description: as §1, §2, §3, §4, §5, §6
(§10) Stock solutions of control compounds (1.6 mg/ml, Amphotericin B or Itraconazole) are initially diluted in medium to a concentration of 32 μg/ml while stock solutions of test compounds (typically 12.8 mg/ml) are diluted to 256 μg/ml. Both of these (control and test compounds) represent 1:50 dilutions. For an assay with three fungal strains, 40 microliters of a stock solution are diluted to 2.0 ml with room temperature medium.
as §8
(§11) To every well in two rows, 100 μl of inoculum (2×) of a single strain is added. To the final two rows on the plate (G & H), only media is added. Addition of inoculum is best accomplished using an electronic multichannel (12) pipettor. […]

A. Nidulans = assay: MIC, broth microdilution (NCCLS M27-A), A. nidulans; assay type: cell-based; settings: 35° C., 48 hours; for MIC: Aspergillus nidulans
Description: as §1
Filamentous fungi (Aspergillus spp.) is cultured on PDA plates in a 35° C. incubator. Inoculum of Aspergillus for susceptibility testing is prepared from plates incubated at 35° C. for 5 days. Colonies are covered with 5 ml of sterile 0.85% saline (8.5 g/liter NaCl) and gently rocked for 10-15 minutes. To dislodge the conidia, an automatic pipettor is used to gently wash over the colonies. The saline solution is removed from the plate and the heavy particles are allowed to settle for 3-5 minutes. The upper suspension is removed and vortexed for 15 sec. The turbidity of the solution is determined by measuring the absorbance in a spectrophotometer (Shimadzu UV-1201S UV-VIS Spectrophotometer) set at 600 nm. An absorbance value between 0.1 and 0.4 is required for an accurate reading.
The cell suspension is diluted with the appropriate medium (typically RPMI-1640) to OD600 =0.0004. The final suspension should contain approximately 3×10^3 cfu per ml (this is a 2×concentrationinoculum). Two 100 μl aliquots of this dilution are spread on SDA plates and incubated at 35° C. for 1-2 days to determine the precise number of colony forming units. An acceptable range for the inoculum (2×) is 1-5×10^3 cfu/ml (100-500 for 100 μl). Following two-fold dilution of the inoculum with compound, the final concentration of cells will be 0.5-2.5×10^3 per ml. The inoculum is kept at 4° C. and used within a few hours.
as §5, §6, §7, §8, §9

C. albicans [2] = assay: Minimum fungicidal concentration (MFC), C. albicans; assay type: cell-based, Candida albicans; settings: viability on SDA plate, 35° C.; for MFC: Candida albicans
Description: as §1, §2, §3, §4, §5, §6, §10, §8, §11

Molecule	MIC (C. albicans [1])	MIC (S. serevisiae)	MIC (A. Nidulans)	MFC (C. albicans [2])	MIC C. albicans (C. albicans [1])	MIC S. serevisiae (S. serevisiae)	MIC A. Nidulans (A. Nidulans)	MFC C. albicans (C. albicans [2])
COc1nccnc1NN=Cc1cccc([N+](=O)[O-])c1O [(12), 2-hydroxy-3-nitrobenzaldehyde-N-(3-methoxy-2-pyrazinyl)hydrazone]	4 µg/mL (≈ 13.8 µM)	4 µg/mL (≈ 13.8 µM)	8 µg/mL (≈ 27.7 µM)	> 128 µg/mL	–	–	–	–
COc1nccnc1NN=Cc1cccc(F)c1O [(3)]	0.5 µg/mL (≈ 1.91 µM)	1 µg/mL (≈ 3.81 µM)	2 µg/mL (≈ 7.63 µM)	> 128 µg/mL	–	–	–	–
Oc1c(Cl)cc(Cl)cc1/C=N/NC(=S)Nc1cc(C(F)(F)F)cc(C(F)(F)F)c1 [(35), N-[3,5bis(trifluoromethyl)phenyl]-2-[(E)-(3,5-dichloro-2-hydroxyphenyl)methylidene]-1-hydrazonecarbothioamide]	2 µg/mL (≈ 4.2 µM)	2 µg/mL (≈ 4.2 µM)	4 µg/mL (≈ 8.4 µM)	> 128 µg/mL	–	–	–	–
COc1ccc(Br)c(C=NNc2nccnc2OC)c1O [(15), 6-bromo-2-hydroxy-3-methoxybenzaldehyde-N-(3-methoxy-2-pyrazinyl)hydrazone]	1 µg/mL (≈ 2.83 µM)	1 µg/mL (≈ 2.83 µM)	8 µg/mL (≈ 22.7 µM)	> 128 µg/mL	–	–	–	–
CCOc1cccc(C=NNc2nccnc2OC)c1O [(11), 3-ethoxy-2-hydroxybenzaldehyde-N-(3-methoxy-2-pyrazinyl)hydrazone]	2 µg/mL (≈ 6.94 µM)	1 µg/mL (≈ 3.47 µM)	2 µg/mL (≈ 6.94 µM)	> 128 µg/mL	–	–	–	–
COc1nccnc1N/N=C/c1cc(Cl)cc(Cl)c1O [(1), 3,5-dichloro-2-hydroxybenzaldehyde-N-(3-methoxy-2-pyrazinyl)hydrazone]	1 µg/mL (≈ 3.19 µM)	1 µg/mL (≈ 3.19 µM)	2 µg/mL (≈ 6.39 µM)	> 128 µg/mL	–	–	–	–
3,5-dichloro-2-hydroxybenzaldehyde-N-(3-chloro-2-pyrazinyl)hydrazine [(16)]	–	–	–	–	8 µg/mL	8 µg/mL	128 µg/mL	> 128 µg/mL
COc1ccc(C=NNc2nccnc2OC)c(O)c1 [(13), 2-hydroxy-4-methoxybenzaldehyde-N-(3-methoxy-2-pyrazinyl)hydrazone]	1 µg/mL (≈ 3.65 µM)	0.5 µg/mL (≈ 1.82 µM)	4 µg/mL (≈ 14.6 µM)	> 128 µg/mL	–	–	–	–
COc1nccnc1NN=Cc1ccccc1O [(4)]	1 µg/mL (≈ 4.09 µM)	1 µg/mL (≈ 4.09 µM)	2 µg/mL (≈ 8.19 µM)	> 128 µg/mL	–	–	–	–
COc1cc(Br)cc(C=NNc2nccnc2OC)c1O [(14), 5-bromo-2-hydroxy-3-methoxybenzaldehyde-N-(3-methoxy-2-pyrazinyl)hydrazone]	0.5 µg/mL (≈ 1.42 µM)	0.5 µg/mL (≈ 1.42 µM)	1 µg/mL (≈ 2.83 µM)	> 128 µg/mL	–	–	–	–
CCN(CC)c1ccc(/C=N/NC(=S)Nc2cccc(C(F)(F)F)c2)c(O)c1 [(48)]	1 µg/mL (≈ 2.44 µM)	0.5 µg/mL (≈ 1.22 µM)	0.5 µg/mL (≈ 1.22 µM)	> 128 µg/mL	–	–	–	–
Oc1cc(N2CCOCC2)ccc1/C=N/NC(=S)Nc1cccc(C(F)(F)F)c1 [(49)]	2 µg/mL (≈ 4.71 µM)	1 µg/mL (≈ 2.36 µM)	0.5 µg/mL (≈ 1.18 µM)	> 128 µg/mL	–	–	–	–
COc1nccnc1N/N=C/c1ccccn1 [(10)]	2 µg/mL (≈ 8.72 µM)	1 µg/mL (≈ 4.36 µM)	2 µg/mL (≈ 8.72 µM)	> 128 µg/mL	–	–	–	–
Oc1cc(OCc2ccccc2)ccc1/C=N/NC(=S)Nc1cccc(C(F)(F)F)c1 [(42)]	0.25 µg/mL (≈ 0.561 µM)	0.25 µg/mL (≈ 0.561 µM)	0.25 µg/mL (≈ 0.561 µM)	> 128 µg/mL	–	–	–	–
COC(=O)c1ccc(COc2ccc(/C=N/NC(=S)Nc3ccc(Cl)cc3)c(O)c2)cc1 [(46)]	1 µg/mL (≈ 2.13 µM)	0.25 µg/mL (≈ 0.532 µM)	0.25 µg/mL (≈ 0.532 µM)	–	–	–	–	–
Oc1ccccc1C=NNc1ccccc1 [(19), 2-hydroxybenzaldehyde-N-phenyl hydrazone]	1 µg/mL (≈ 4.71 µM)	1 µg/mL (≈ 4.71 µM)	0.125 µg/mL (≈ 0.589 µM)	–	–	–	–	–
Oc1ccccc1/C=N/NC(=S)Nc1cccc(F)c1 [(40)]	32 µg/mL (≈ 111 µM)	2 µg/mL (≈ 6.91 µM)	> 128 µg/mL	–	–	–	–	–
COc1nccnc1NN=Cc1cc(Cl)ccc1O [(2)]	1 µg/mL (≈ 3.59 µM)	1 µg/mL (≈ 3.59 µM)	2 µg/mL (≈ 7.18 µM)	> 128 µg/mL	–	–	–	–
Cc1cc(C)cc(NC(=S)N/N=C/c2ccc(OCc3ccccc3)cc2O)c1 [(50)]	–	–	–	–	1 µg/mL (≈ 2.47 µM)	0.5 µg/mL (≈ 1.23 µM)	0.5 µg/mL (≈ 1.23 µM)	–
N-[(3-trifluoromethyl)phenyl)]-2-[(E)-(4-allyl-phenyl)-benzyloxy-2-hydroxyphenyl)methylidene]-1-hydrazonecarbothiamide [(44)]	–	–	–	–	8 µg/mL	2 µg/mL	2 µg/mL	–
